Laboratory results: patent US8304601B2, “Mouse model for eye disease” (priority 2007, dated 2012)
Counter-ions that a name gives are not always drawn.

What was measured:
Format in all cases: in vivo
Vav2/3^ko mouse [1] = experiment: Intraocular pressure after eye-drop administration, Example 5; conditions: for Ratio of effect on intraocular pressure: Vav2/3^ko
Description: (§1) For the No. 20 animal of each of the 7-week old Vav2/3^ko and Vav2^ko, intraocular pressure was measured between 10 o'clock in the morning and noon by using a Tonometer. Then, 3 μL solution containing 0.02% benzalkonium chloride, 0.5% NaH2PO4, 0.6% Na2HPO4, 0.4% sodium chloride and 0.005% Latanoprost (manufactured by Cayman Chemical), or solution having the same composition except that no latanoplast was contained was applied to an eye of the animal based on a blind testing method. Three hours later, the intraocular pressure was measured again. In addition, to Vav2/3^ko, 3 μL eye-drop solution containing timolol maleate (Trade name; Timoptol, Merck Company, USA, 0.5% solution), or 3 μL eye-drop solution containing dorzolamide hydrochloride (Trade name; Trusopt, Merck Company, USA, 1% solution), both having a different mechanism for reducing intraocular pressure compared to latanoprost, was applied instead of the solution containing latanoprost as described above. Two hours after the application, change in the intraocular pressure was measured.

Vav2^ko mouse [2] = experiment: as above; conditions: 7-week old Vav2^ko
Description: as §1

Vav2/3^ko mouse [3] = experiment: Intraocular pressure after latanoprost eye drop, Example 4; conditions: 8- to 9-week old Vav2/3^ko mouse; 3 μL 0.01%/PBS applied; three hours later; vs PBS control
Description: For the 8- to 9-week old Vav2/3^ko mouse (No. 12), intraocular pressure was measured between 10 o'clock in the morning and noon by using a Tonometer. Then, 3 μL of latanoplast (0.01%/PBS, manufactured by Cayman Chemical) of a prostaglandin derivative as a therapeutic agent for glaucoma was applied and the intraocular pressure was measured again three hours later. As a control, a group administered only with PBS was prepared at the same time, and analysis was carried out based on Student's t-test (P<0.05). […] Therefore, it was confirmed that the mouse of the present invention is a useful model for evaluation of a therapeutic agent for glaucoma.

Vav3^ko mouse = experiment: Intraocular pressure after Y-27632 eye drop, Test Example 3; conditions: 7-week old Vav3^ko; 3 μL of 1 mM/PBS solution to eye; one hour after administration
Description: (§2) For No. 20 of each of the 7-week old Vav2/3^ko, Vav2^ko and Vav3^ko, intraocular pressure was measured between 10 o'clock in the morning and noon by using a Tonometer and then 3 μL of 1 mM/PBS solution of Y-27632 (Calbiochem), which is an inhibitor for Rho-associated protein kinase and has been reported to have an activity of reducing intraocular pressure by acting on an outflow tract for aqueous humor, or 3 μL of PBS solution was applied to an eye. One hour after the administration, the intraocular pressure was measured again.

Vav2/3^ko mouse [4] = experiment: as above; conditions: 7-week old Vav2/3^ko; 3 μL of 1 mM/PBS solution to eye; one hour after administration
Description: as §2

Vav2^ko mouse [5] = experiment: as above; conditions: 7-week old Vav2^ko; 3 μL of 1 mM/PBS solution to eye; one hour after administration
Description: as §2

[6] = 3 μL eye-drop solution (timolol maleate 0.5%, dorzolamide hydrochloride 1%), two hours after application

CC(C)OC(=O)CCC/C=C\C[C@@H]1[C@@H](CC[C@@H](O)CCc2ccccc2)[C@H](O)C[C@@H]1O [latanoprost]
intraocular pressure three hours after administration (Vav2/3^ko mouse [1]; 7-week old Vav2/3^ko, 3 μL 0.005% solution to eye, three hours later, P<0.01): 15.8±5.1 mmHg
intraocular pressure twenty four hours after eye drop administration (Vav2/3^ko mouse [1]; 7-week old Vav2/3^ko, 3 μL 0.005% solution, twenty four hours after): came back to the high value which is the same as the one before the eye drop administration
intraocular pressure before administration (Vav2/3^ko mouse [1]; 7-week old Vav2/3^ko, before eye drop of 3 μL 0.005% solution): 26.3±5.0 mmHg
Ratio of effect on intraocular pressure (Vav2/3^ko mouse [1]; 3 μL 0.005% latanoprost solution, three hours later): about 40%
intraocular pressure three hours after administration (Vav2^ko mouse [2]; 3 μL 0.005% solution to eye, three hours later, P<0.01): 14.5 mmHg
intraocular pressure before administration (Vav2^ko mouse [2]; before eye drop of 3 μL 0.005% solution): 17.4 mmHg
intraocular pressure change (Vav2/3^ko mouse [3]): reduced

C[C@@H](N)[C@H]1CC[C@H](C(=O)Nc2ccncc2)CC1 [Y-27632]
activity of reducing the intraocular pressure (Vav3^ko mouse): did not show any activity of reducing the intraocular pressure
activity of reducing the intraocular pressure (Vav2/3^ko mouse [4]): did not show any activity of reducing the intraocular pressure
activity of reducing the intraocular pressure (Vav2^ko mouse [5]): did not show any activity of reducing the intraocular pressure

CC(C)(C)NC[C@H](O)COc1nsnc1N1CCOCC1 [timolol maleate]
Ratio of effect on intraocular pressure (Vav2/3^ko mouse [1]; [6]): 15%

CCN[C@H]1C[C@H](C)S(=O)(=O)c2sc(S(N)(=O)=O)cc21 [dorzolamide hydrochloride]
Ratio of effect on intraocular pressure (Vav2/3^ko mouse [1]; [6]): 20%
